Measured values from US12246025B2, “Methods of treating cancer with a combination of a platinum-based agent and an anti-tissue factor antibody-drug conjugate” (priority 2018, dated 2025).

Legend:
[1] = system: bladder xenograft model BXF1036; assay: Anti-tumor efficacy of tisotumab vedotin with cisplatin in bladder cancer PDX mouse model; format: in vivo, Crl:NMRI-Foxn1^nu nude mice; conditions: alone; for tumor growth: tisotumab vedotin 0.5 mg/kg, cisplatin 2 mg/kg, FIG. 2A-C; for survival: tumor size cut-off 500 mm^3, FIG. 2D
Procedure: The in vivo anti-tumor efficacy of tisotumab vedotin in combination with cisplatin was evaluated in a PDX mouse model in female Crl:NMRI-Foxn1^nu (Envigo RMS SARL, France) nude mice (Charles River Discovery Research Services). Xenografts were derived from tumor specimens from cancer patients. Establishment and characterization of the PDX model was performed following primary implantation into nude mice. Tumor xenografts were passaged approximately three to five times until establishment of stable growth patterns. Tumor fragments were obtained from xenografts in serial passage in nude mice. Tumors were cut into fragments of 3-4 mm diameter and placed in phosphate-buffered saline (PBS) until subcutaneous implantation. A bladder cancer PDX model (bladder xenograft model BXF1036; Charles River Discovery Research Services) was used in this experiment. Tumor size was determined by caliper measurement at least two times a week and tumor volume was calculated as 0.52×length×[…]. When tumors reached the volume of 50-250 mm^3, mice were randomized in 5 groups (10 mice per treatment group). Mice were treated with the following: 1) tisotumab vedotin alone at a dose level of 0.5 mg/kg provided on day 1 of treatment; 2) cisplatin alone at a dose of 2 mg/kg provided on day 1 and day 8 of treatment; 3) tisotumab vedotin at a dose level of 0.5 mg/kg provided on day 1 of treatment in combination with cisplatin at a dose of 2 mg/kg provided on day 1 and day 8 of treatment; 4) IgG1 isotype control at a dose of 0.5 mg/kg provided on day 1 of treatment; or 5) IgG1-MMAE control at a dose of 0.5 mg/kg provided on day 1 of treatment. IgG1 isotype control, IgG1-MMAE control and tisotumab vedotin were each in PBS and injected intravenously. Cisplatin was in 0.9% NaCl and injected subcutaneously. […] Mice were housed in individually ventilated (IVC) cages, with a maximum of five mice per cage, and identified by ear tags.
To determine whether there were statistically significant differences between tumor volumes in control and treatment groups, tumor volumes in the treatment groups were compared with those in the control groups (e.g., IgG1-MMAE control, tisotumab vedotin alone or cisplatin alone) using Mann-Whitney analysis at the last day that all groups were intact, i.e., day 25. Statistical analysis of the difference between groups treated with tisotumab vedotin in combination with cisplatin and groups treated with either tisotumab vedotin alone or cisplatin alone was performed on day 32.
Tumor progression was plotted in a Kaplan-Meier plot, with a cut-off set at a tumor volume >500 mm^3. […]

[2] = system: HuPrime® cervical xenograft model CV1248 [R4P5]; assay: Anti-tumor efficacy of tisotumab vedotin with cisplatin in cervical cancer PDX mouse model; format: in vivo, BALB/c nude mice; conditions: alone, tisotumab vedotin 2 mg/kg and 4 mg/kg, cisplatin 4 mg/kg; for tumor growth: FIG. 1A-C; for survival: tumor size cut-off 1000 mm^3, FIGS. 1D and 1E
Procedure: The in vivo anti-tumor efficacy of tisotumab vedotin in combination with cisplatin was evaluated in a patient-derived xenograft (PDX) mouse model in BALB/c nude mice (Crown Bioscience Inc.). Xenografts were derived from tumor specimens from cancer patients. Establishment and characterization of the PDX model was performed following primary implantation into nude mice. Tumor xenografts were passaged approximately three to five times until establishment of stable growth patterns. Tumor fragments were obtained from xenografts in serial passage in nude mice. Tumors were cut into fragments of 2-3 mm diameter and placed in phosphate-buffered saline (PBS) until subcutaneous implantation. A cervical cancer PDX model (HuPrime® cervical xenograft model CV1248 [R4P5]; Crown Bioscience Inc.) was used in this experiment. Tumor size was determined by caliper measurement at least two times a week and tumor volume was calculated as 0.5×length×width^2. When tumors reached the volume of 200 mm^3, mice were randomized in 11 groups (7-8 mice per treatment group). Mice were treated with the following by intravenous injections: 1) tisotumab vedotin alone at a dose level of 0.5 mg/kg, 1 mg/kg, 2 mg/kg or 4 mg/kg provided on day 0 and day 7 of treatment; 2) cisplatin alone at a dose of 4 mg/kg provided on day 0, day 7 and day 14 of treatment; 3) tisotumab vedotin at a dose level of 0.5 mg/kg, 1 mg/kg, 2 mg/kg or 4 mg/kg provided on day 0 and day 7 of treatment in combination with cisplatin at a dose of 4 mg/kg provided on day 0, day 7 and day 14 of treatment; 4) IgG1 isotype control at a dose of 4 mg/kg provided on day 0 and day 7 of treatment; or 5) IgG1-MMAE control at a dose of 4 mg/kg provided on day 0 and day 7 of treatment. […] Mice were housed in individually ventilated (IVC) cages, four or five mice per cage and identified by ear tags.
To determine whether there were statistically significant differences between tumor volumes in control and treatment groups, tumor volumes in the treatment groups were compared with those in the control group (e.g., treatment groups vs IgG1-MMAE control) using Mann-Whitney analysis at the last day that all groups were intact, i.e., day 38. For survival analysis (tumor volume cut-off was 1,000 mm^3). Mantel-Cox analysis was performed on Kaplan-Meier plots with a cut-off set at tumor volume >1,000 mm^3.

[3] = system: relapsed, recurrent, and/or metastatic cervical cancer; conditions: cited from earlier work
[4] = system: HuPrime® cervical xenograft model CV1248 [P3]; assay: Anti-tumor efficacy of tisotumab vedotin with carboplatin in cervical cancer PDX mouse model; format: in vivo, BALB/c nude mice; conditions: alone; tisotumab vedotin 2 mg/kg, carboplatin 40 or 80 mg/kg; FIGS. 3A and 3B
Procedure: The in vivo anti-tumor efficacy of tisotumab vedotin in combination with carboplatin was evaluated in a patient-derived xenograft (PDX) mouse model in female BALB/c nude mice (Crown Bioscience [Taicang] Inc.). Xenografts were derived from tumor specimens from cancer patients. Tumor fragments were obtained from xenografts in serial passage in nude mice. Tumors were cut into fragments of 2-4 mm diameter and placed in phosphate-buffered saline (PBS) until subcutaneous implantation. A cervical cancer PDX model (HuPrime® cervical xenograft model CV1248 [P3]; Crown Bioscience Inc.) was used in this experiment. Tumor size was determined by caliper measurement at least two times a week and tumor volume was calculated as 0.5×length× width^2. When tumors reached an average volume of 150 mm^3, mice were randomized in 7 groups (10 mice per treatment group). The day of randomization was designated day 0. Mice were treated with the following by intravenous injections: 1) tisotumab vedotin alone at a dose level of 2 mg/kg, provided on day 0, day 7 and day 14; 2) carboplatin (Selleck Chemicals, cat. no. […]

Molecule	tumor growth [1]	survival [1]	tumor growth [2]	survival [2]	efficacy ([3]; 2.0 mg/kg)	safety profile ([3]; 2.0 mg/kg)	grade of reported peripheral neuropathy cases ([3]; in vivo)	Epistaxis (bleeding AE) ([3]; nearly all of the cases are grade 1)	subjects with peripheral neuropathy ([3]; subjects who received treatment with tisotumab vedotin)	tumor growth [4]
N.N.[Cl][Pt][Cl] [Cisplatin, reference compound]	inhibited tumor growth	prolonged survival	inhibited tumor growth	prolonged survival						
Tisotumab vedotin: antibody-drug conjugate comprising an antibody that binds to tissue factor (TF), a protease-cleavable linker, and the microtubule disrupting agent MMAE	efficiently inhibited tumor growth	prolonged survival	efficiently inhibited tumor growth	prolonged survival	robust efficacy	manageable safety profile	majority of the reported cases are grade 1-2	most common reported AE	approximately 35%	efficiently inhibited tumor growth
N.N.O=C([O-])C1(C(=O)[O-])CCC1.[Pt+2] [Carboplatin, reference compound]										did not inhibit tumor growth
